{
  "source": "paper PMC4279401",
  "about": "(Oncotarget, 2014)",
  "key": {"[1]": {"test_system": "MDA-MB231", "assay": "Cell proliferation, MTT assay", "format": "cell-based", "details": "Homo sapiens"}, "[2]": {"test_system": "BT549", "assay": "Cell proliferation, MTT assay", "format": "cell-based", "details": "Homo sapiens"}, "[3]": {"test_system": "MCF-7", "assay": "Cell proliferation, MTT assay", "format": "cell-based", "details": "Homo sapiens"}, "[4]": {"test_system": "MDA-MB231, BT549 and MCF-7 breast cancer cells", "assay": "Cell proliferation, MTT assay, DOT1L+ breast cancer cells", "format": "cell-based, Human"}, "[5]": {"test_system": "H3K79 methylation", "assay": "Western blot of histone methylation in MDA-MB231", "format": "cell-based, Human", "details": "Homo sapiens, MDA-MB-231, read-out: IC50 of H3K79 methylation inhibition", "protocol": "Human cell lines BT549, MDA-MB231, MCF-7, MDA-MB157, HCC70, A549 and NB4 were obtained from the American Type Culture Collection (ATCC) and cultured using ATCC recommended conditions. Primary antibodies against H3K79me2, H3K27me3, H3K4me3, H3K36me2, H4K20me3, H3K9me-pan were purchased from Cell Signaling (Danvers, MA). siRNA experiments were performed by transfecting MDA-MB-231 cells with X-tremeGENE Transfection Reagent (Roche) and 10 nM siRNA (Invitrogen), according to the manufacturer's protocol.\n(§1) 10^6 cells/well were incubated with increasing concentrations of a compound for 5 days and histones extracted with the EpiQuik™ Total Histone Extraction Kit (Epigentek) according to the manufacturer's protocol. Equal amounts of histones (2μg) were separated on SDS-PAGE and transferred to PVDF membranes. The blots were probed with primary antibodies, followed by anti-rabbit IgG (Thermo Scientific) secondary antibodies. For western blot analysis of MDA-MB231 xenograft tumors, tumors were harvested and frozen in liquid nitrogen. Histones were extracted and analyzed by immunoblotting as described above."}, "[6]": {"test_system": "H3K27 methylation", "assay": "Western blot of histone methylation in MDA-MB231", "format": "cell-based", "details": "Homo sapiens, MDA-MB-231, Fig. 4b, read-out: IC50 against H3K27 methylation", "protocol": "as §1"}, "[7]": {"test_system": "methylation at H3K4, H3K9, H3K27, H3K36 and H4K20", "assay": "Western blot of methylation at other histone lysines in MDA-MB231", "format": "cell-based, Human", "details": "at concentrations of <1 μM, in words", "protocol": "as §1"}, "[8]": {"test_system": "MDA-MB231 cells", "assay": "Apoptosis, Annexin V FACS", "format": "cell-based, Human", "details": "20 nM, day 7", "protocol": "(§2) For apoptosis and cell cycle analysis, 10^5 cells/well were incubated with increasing concentrations of a compound for 7 or 10 days. Apoptosis was determined using the FITC Annexin V Apoptosis Detection Kit I (BD Bioscience) according to the manufacturer's protocol. Cells for cell cycle analysis were fixed in cold 70% ethanol at 4°C and stained with Propidium iodide (Sigma-Aldrich) (20 μg/ml) and RNase A (10 μg/ml) for 30min. Cells were analyzed using a FACS Calibur (BD Biosciences/Applied Biosystems) and data were processed using the program Flowjo (version7.6.5)."}, "[9]": {"test_system": "MDA-MB231 cells", "assay": "Cell cycle analysis, propidium iodide FACS", "format": "cell-based, Human", "protocol": "as §2"}, "[10]": {"test_system": "MDA-MB231 cells", "assay": "CD44/CD24 flow cytometry", "format": "cell-based, Human", "details": "MDA-MB231, FACS, in words", "protocol": "(§3) 5 × 10^4 cells/well were incubated with compounds for 14 days. The ALDH activity of cells was determined by using the ALDEFLUOR assay kit (StemCell Technologies) according to the manufacturer's instructions. Combinations of fluorochrome-conjugated monoclonal antibodies against human CD44-FITC and CD24-PE were obtained from BD Biosciences. Primary antibodies or the respective isotype controls (BD Biosciences) were added to the cell suspension, according to the manufacturer's recommendation, and incubated at 4°C for 20 min. Dead cells were eliminated using propidium iodide (Sigma). The labelled cells were analyzed on a FACS Calibur (BD Biosciences/Applied Biosystems)."}, "[11]": {"test_system": "MDA-MB231 cells", "assay": "ALDEFLUOR assay", "format": "cell-based, Human", "details": "in words", "protocol": "as §3"}, "[12]": {"test_system": "MDA-MB231", "assay": "Secondary mammosphere assay", "format": "cell-based, Human", "details": "MDA-MB231, in words", "protocol": "The protocol for mammosphere assay was performed using a published method. The numbers of secondary mammospheres in each well were counted using a Leica MZ12.5 microscope."}, "[13]": {"test_system": "MDA-MB231", "assay": "Transwell cell migration assay", "format": "cell-based, Human", "details": "MDA-MB231, Transwell with and without Matrigel, in words", "protocol": "5 × 10^4 cells/well were incubated with compounds for 14 days. For transwell migration assays, 5× 10^4 cells were plated in the top chamber with the non-coated membrane (24-well insert; pore size, […]; BD Biosciences). For invasion assays, 5× 10^4 cells were plated in the top chamber with Matrigel-coated membrane. The cells on the apical side of each insert were then scraped off after 22 h for both assays. The wells were washed with PBS, fixed with 100% methanol and stained with DAPI. Cells that had migrated to the basal side of the membrane were visualized and counted with a Nikon Eclipse TE2000-U microscope at 10×. Pictures of three random fields were obtained and the number of cells that had migrated quantified using ImageJ analysis software."}, "[14]": {"test_system": "MDA-MB231 xenograft", "assay": "MDA-MB231 xenograft mouse model", "format": "in vivo, athymic nude mice", "details": "4 mg/kg/day for 28 days", "protocol": "(§4) Female athymic nude mice (4 to 6 weeks old) were obtained from Charles River (Wilmington, MA, USA) and maintained under pathogen-free conditions. The use of athymic nude mice and their treatment were approved by the BCM Institutional Animal Care and Use Committee, and the experiments were conducted in strict compliance with the regulations. 2 ×10^6 MDA-MB-231 cells were injected into the upper right mammary fat pad of the recipient mouse and tumor growth and animal weights were monitored twice a week. The tumor volumes were calculated using the formula length × (width)^2/2. When the tumors reached a size of about 20–30 mm^3, mice were randomly segregated into control and treatment groups. Mice in the treatment group were implanted subcutaneously an osmotic pumps (Alzet model 2004) containing 2.8 mg of 3 in 200 μL of PBS. Animals were sacrificed when the volumes of tumors reaching ~1.5 cm^3. Log-rank analysis was used to determine statistical significance of the survival curves using Prism 5.0 (GraphPad)."}, "[15]": {"test_system": "H3K79 methylation", "assay": "Western blot of xenograft tumor tissues", "format": "in vivo, athymic nude mice", "details": "day 14, Western blot, in words", "protocol": "as §1\nas §4, with “Mice in the treatment group were implanted subcutaneously an osmotic pumps (Alzet model 2004) containing 2.8 mg of 3 in 200 μL of PBS. Animals were sacrificed when the volumes of tumors reaching ~1.5 cm^3. Log-rank analysis was used to determine statistical significance of the survival curves using Prism 5.0 (GraphPad).” left out"}, "[16]": {"assay": "Toxicity in treated mice", "format": "in vivo", "protocol": "as §4"}, "[17]": {"molecular_target": "SAHH", "details": "read-out: Ki against SAHH; cited from earlier work"}},
  "note": "“Also recorded” adds a separate entry of the source. Read-outs that look alike come from different tables or passages of the source.",
  "data": [
    {"smiles": "Nc1ncnc2c1ncn2[C@@H]1C=C(CO)[C@@H](O)[C@H]1O", "note": "[Compound 3, neplanocin A]", "values": [
      {"measurement": "EC50", "setting": "[1]; MDA-MB-231, 72 h, MDA-MB231, 3-day treatment, read-out: Anti-proliferative activity EC50", "result": 930, "unit": "nM"},
      {"measurement": "EC50", "setting": "[1]; MDA-MB-231, 360 h, MDA-MB231, 15-day, read-out: EC50, 15-day treatment", "result": 9, "unit": "nM"},
      {"measurement": "EC50", "setting": "[2]; BT-549, 72 h, BT549, 3-day treatment, read-out: Anti-proliferative activity EC50", "result": 2600, "unit": "nM"},
      {"measurement": "EC50", "setting": "[2]; BT-549, 360 h, BT549, 15-day, read-out: EC50, 15-day treatment", "result": 29, "unit": "nM"},
      {"measurement": "EC50", "setting": "[3]; MCF7, 72 h, MCF-7, 3-day treatment, read-out: Anti-proliferative activity EC50", "result": 910, "unit": "nM"},
      {"measurement": "EC50", "setting": "[3]; MCF7, 360 h, MCF-7, 15-day, read-out: EC50, 15-day treatment", "result": 51, "unit": "nM"},
      {"measurement": "EC50", "setting": "[4]; Homo sapiens, 72 h, three DOT1L+ breast cancer cells, 3-day, read-out: EC50, 3-day treatment", "result": "900 to 2600", "unit": "nM"},
      {"measurement": "times more active in 15-day than in the corresponding 3-day data", "setting": "[4]; MDA-MB231, BT549, MCF-7", "result": "18 - 100 ×"},
      {"measurement": "IC50", "setting": "[5]", "result": "~50", "unit": "nM"},
      {"measurement": "IC50", "setting": "[6]", "result": "> 6000", "unit": "nM"},
      {"measurement": "inhibitory activity against methylation at H3K4, H3K9, H3K27, H3K36 and H4K20", "setting": "[7]", "result": "no or negligible inhibitory activities; also recorded: negligible effects"},
      {"measurement": "apoptosis of MDA-MB231 cells", "setting": "[8]", "result": 12.1, "unit": "%"},
      {"measurement": "sub-G1 phase cell population", "setting": "[9]; MDA-MB231, in words", "result": "increased sub-G1 population"},
      {"measurement": "sub-G phase cell population after treatment", "setting": "[9]; MDA-MB231, control 4.4%", "result": 21.2, "unit": "%"},
      {"measurement": "CD44+/CD24− cell population", "setting": "[10]", "result": "reduced; also recorded: decreased"},
      {"measurement": "cell population expressing high levels of CD24", "setting": "[10]", "result": "significantly expanded; also recorded: increased cell population expressing high levels of CD24"},
      {"measurement": "ALDH+ cell population", "setting": "[11]", "result": "decreased; also recorded: reduced"},
      {"measurement": "secondary mammosphere formation", "setting": "[12]", "result": "more pronounced activity; also recorded: inhibited secondary mammosphere formation"},
      {"measurement": "cell migration and invasion", "setting": "[13]", "result": "more pronounced activity; also recorded: reduced cell migration and invasiveness"},
      {"measurement": "animal survival", "setting": "[14]; in words", "result": "significantly prolonged animal survivals"},
      {"measurement": "tumor growth", "setting": "[14]; in words", "result": "significantly inhibited"},
      {"measurement": "tumor growth inhibition", "setting": "[14]; subcutaneous osmotic pump", "result": "> 95", "unit": "%"},
      {"measurement": "tumors exhibiting regression during the treatment", "setting": "[14]; remained 1-3 mm in diameter", "result": "Four tumors (out of nine)"},
      {"measurement": "H3K79 methylation in tumor tissues", "setting": "[15]", "result": "only significantly reduced H3K79 methylation levels; also recorded: only H3K79 methylation was significantly inhibited"},
      {"measurement": "toxicities", "setting": "[16]; 4 mg/kg/day for 28 days, in words", "result": "no obvious toxicities"},
      {"measurement": "changes in blood cell counts, hemoglobin and body weight", "setting": "[16]; 4 mg/kg/day, day 28, in words", "result": "did not cause significant changes; also recorded: no significant changes"},
      {"measurement": "Ki", "setting": "[17]", "result": 8.4, "unit": "nM"}
    ]}
  ]
}
